Test results: paper PMC10740580, “Benzothiazole-Phthalimide Hybrids as Anti-Breast Cancer and Antimicrobial Agents” (Antibiotics, 2023)
Values after ≈ are worked out from the molar mass of the structure shown.

Experiments:
Candida albicans 10231 = assay: Antifungal microdilution, C. albicans ATCC 10231; assay type: cell-based; conditions: microdilution CLSI M27-A3, 48 h, 37 °C
Procedure: (§1) In accordance with CLSI guidelines, compounds 3a–h were tested against a variety of fungal strains (Candida albicans 10231, Candida albicans 90028, Candida glabrata 15126, and Candida parapsilosis 22019) belonging to the ATCC collection. Amphotericin B was utilized as a reference drug. A similar trend of results, or even better than that obtained against bacteria, was assessed against fungal strains. […] Also, in this case, compound 3h emerged as the best of the series, with MICs of 16 μg/mL against Candida glabrata and Candida parapsilosis strains and 32 μg/mL against Candida albicans strains.
(§2) A microdilution technique described by the Clinical and Laboratory Standards Institute (CLSI, M27-A3) was used to assess the antifungal activity. The following fungal strains, belonging to the ATCC collection and available as freeze-dried discs, were used: C. albicans ATCC 10231, C. albicans ATCC 90028, C. glabrata ATCC 15126, and C. parapsilosis ATCC 22019. Stock solutions were prepared and preserved with purity as previously described for the antibacterial studies. Each yeast strain’s pre-cultures were made in Sabouraud broth (SAB) and allowed to grow until they stopped at 37 °C. By using a spectrophotometric technique (530 nm, range 0.12–0.15), the turbidity of the yeast stock suspension was calibrated to 0.5 McFarland Standard. Next, the standardized suspension was diluted first at 1:50 with SAB and then at 1:20 in the same medium to have […]. A total of 100 µL of inoculum was seeded into each well. As a control for growth, several wells containing only inoculated broth were prepared. The plates were incubated for 48 h at 37 °C, and the MIC values were calculated as the final well with no fungal growth. […] MIC values were observed based on the absence of fungal growth in the final well. The MICs were calculated by conducting the antifungal test three times in duplicate. As a control, amphotericin B was used.

angiogenesis = conditions: previous study, reduced side effects compared to thalidomide; cited from earlier work
Escherichia coli 25922 = assay: Broth microdilution, E. coli ATCC 25922; assay type: cell-based; conditions: 24 h, 37 °C
Source text: (§3) Compounds 3a–h were examined in accordance with the Clinical Laboratory Standards Institute (CLSI) recommendations, by means of the broth microdilution method, against gram-positive bacteria (Staphylococcus aureus 25923, Staphylococcus aureus 29213, Staphylococcus aureus 43300, Enterococcus faecalis 29212) and gram-negative bacteria (Escherichia coli 25922, Klebsiella pneumoniae 13883, Pseudomonas aeruginosa 27853) belonging to the ATCC collection, using levofloxacin as a reference drug. Table 3 lists the results, expressed as MIC (µg/mL). […] The lack of activity observed for compound 3d could be conceivably due to its poor solubility in the culture medium containing the inoculum.
(§4) Following the recommendations of the CLSI (Clinical and Laboratory Standards Institute, 2012), the broth microdilution method was used to determine the in vitro minimum inhibitory concentrations (MICs, µg/mL).. The concentration of the investigated compounds was set to its highest value to create stock solutions. Then, the stock solutions were diluted 1:10 with Cation-Adjusted Mueller Hinton Broth (Oxoid, Milan, Italy). After that, a series of concentrations from 512 µg/mL to […] were obtained in the wells by performing two-fold serial dilutions in the appropriate test medium. The diluent used to create the stock solution was 100% DMSO. We used the following bacterial strains from the ATCC collection that were available as freeze-dried discs: gram-positive strains such as S. aureus ATCC 25923, 29213, and 43300, and E. faecalis ATCC 29212, and gram-negative ones such as E. coli ATCC 25922, K. pneuomoniae ATCC 13883, and P. aeruginosa ATCC 27853. To preserve the purity of cultures and to allow their reproducibility, cryovials of all microbial strains were set up in the medium and stored at −80 °C. Mueller Hinton Broth (MHB) was used to prepare pre-cultures of each bacterial strain, which were then incubated for 3–5 h at 37 °C. In accordance with CLSI procedure M7-A9, the turbidity of the bacterial cell suspension was calibrated to 0.5 McFarland Standard using a spectrophotometric approach (OD625 nm 0.08–0.10). The standardized suspension was then further diluted (1:100) with MHB to reach 1–2 × 10^6 CFU/mL. A 200 µL aliquot of the final inoculum was inserted into each well. As a control for growth, several wells containing only inoculated broth were prepared. The plates were incubated at 37 °C for 24 h, and the MIC values were calculated as the lowest concentration of compounds at which there was no optically detectable bacteria growth. Each experiment was carried out in duplicate and repeated twice to determine the MICs. Levofloxacin served as the study’s standard reference antibiotic. Additionally, the antibacterial activity of DMSO alone (used as a diluent for the investigated compounds) was examined; therefore, volumes of this solvent with a concentration of less than 5% were utilized throughout the experimentation.

[1] = system: Staphylococcus aureus 43300; assay: Broth microdilution, S. aureus ATCC 43300; assay type: cell-based; conditions: 24 h, 37 °C, methicillin-resistant
Source text: as §3, §4

[2] = system: Enterococcus faecalis 29212; assay: Broth microdilution, E. faecalis ATCC 29212; assay type: cell-based; conditions: 24 h, 37 °C, read-out: MIC E.f. 29212
Source text: as §3, §4

[3] = system: Candida parapsilosis 22019; assay: Antifungal microdilution, C. parapsilosis ATCC 22019; assay type: cell-based; conditions: microdilution CLSI M27-A3, 48 h, 37 °C, read-out: MIC C.p. 22019
Procedure: as §1, §2

gram-positive bacteria = assay: Broth microdilution, gram-positive bacteria; assay type: cell-based; conditions: read-out: MIC against gram-positive bacteria
Source text: as §3
Following the recommendations of the CLSI (Clinical and Laboratory Standards Institute, 2012), the broth microdilution method was used to determine the in vitro minimum inhibitory concentrations (MICs, µg/mL).. The concentration of the investigated compounds was set to its highest value to create stock solutions. Then, the stock solutions were diluted 1:10 with Cation-Adjusted Mueller Hinton Broth (Oxoid, Milan, Italy). After that, a series of concentrations from 512 µg/mL to […] were obtained in the wells by performing two-fold serial dilutions in the appropriate test medium. The diluent used to create the stock solution was 100% DMSO. […]

gram-negative bacteria = assay: Broth microdilution, gram-negative bacteria; assay type: cell-based; conditions: read-out: MIC against gram-negative bacteria
Source text: as §3
Following the recommendations of the CLSI (Clinical and Laboratory Standards Institute, 2012), the broth microdilution method was used to determine the in vitro minimum inhibitory concentrations (MICs, µg/mL).. The concentration of the investigated compounds was set to its highest value to create stock solutions. Then, the stock solutions were diluted 1:10 with Cation-Adjusted Mueller Hinton Broth (Oxoid, Milan, Italy). After that, a series of concentrations from 512 µg/mL to […] were obtained in the wells by performing two-fold serial dilutions in the appropriate test medium. The diluent used to create the stock solution was 100% DMSO. We used the following bacterial strains from the ATCC collection that were available as freeze-dried discs: gram-positive strains such as S. aureus ATCC 25923, 29213, and 43300, and E. faecalis ATCC 29212, and gram-negative ones such as E. coli ATCC 25922, K. pneuomoniae ATCC 13883, and P. aeruginosa ATCC 27853. To preserve the purity of cultures and to allow their reproducibility, cryovials of all microbial strains were set up in the medium and stored at −80 °C. Mueller Hinton Broth (MHB) was used to prepare pre-cultures of each bacterial strain, which were then incubated for 3–5 h at 37 °C. […]

Row | melting point | MIC (Candida albicans 10231) | MIC (Escherichia coli 25922) | MIC [1] | MIC [2] | MIC [3] | Compound | antiangiogenic activity (angiogenesis) | MIC (gram-positive bacteria) | MIC (gram-negative bacteria)
1 | 249 to 250 °C | 64 mg/L (≈ 228 µM) | 64 mg/L (≈ 228 µM) | 64 mg/L (≈ 228 µM) | 64 mg/L (≈ 228 µM) | 32 mg/L (≈ 114 µM) | O=C1c2ccccc2C(=O)N1c1nc2ccccc2s1 [3a, 2-(1,3-benzothiazol-2-yl)-1H-isoindole-1,3(2H)-dione] | performed as antiangiogenic agents |  | 
2 | 234 to 235 °C | 64 mg/L (≈ 215 µM) | 64 mg/L (≈ 215 µM) | 64 mg/L (≈ 215 µM) | 64 mg/L (≈ 215 µM) | 32 mg/L (≈ 107 µM) | O=C1c2ccccc2C(=O)N1c1nc2ccc(F)cc2s1 [3b, 2-(6-Fluoro-1,3-benzothiazol-2-yl)-1H-isoindole-1,3(2H)-dione] |  |  | 
3 |  | 64 mg/L (≈ 184 µM) | 128 mg/L (≈ 367 µM) | 64 mg/L (≈ 184 µM) | 64 mg/L (≈ 184 µM) | 64 mg/L (≈ 184 µM) | O=C1c2ccccc2C(=O)N1c1nc2ccc(C(F)(F)F)cc2s1 [3c, 2-[6-Trifluoromethyl-1,3-benzothiazol-2-yl]-1H-isoindole-1,3(2H)-dione] |  |  | 
4 | > 250 °C | > 512 mg/L | > 512 mg/L | > 512 mg/L | > 512 mg/L | > 512 mg/L | Cc1ccc2nc(N3C(=O)c4ccccc4C3=O)sc2c1 [3d, 2-[6-Methyl-1,3-benzothiazol-2-yl]-1H-isoindole-1,3(2H)-dione] | performed as antiangiogenic agents |  | 
5 | 227 to 229 °C | 64 mg/L (≈ 206 µM) | 64 mg/L (≈ 206 µM) | 32 mg/L (≈ 103 µM) | 64 mg/L (≈ 206 µM) | 32 mg/L (≈ 103 µM) | COc1ccc2nc(N3C(=O)c4ccccc4C3=O)sc2c1 [3e, 2-[6-Methoxy-1,3-benzothiazol-2-yl]-1H-isoindole-1,3(2H)-dione] |  |  | 

Row | Compound | melting point | MIC (Candida albicans 10231) | MIC (Escherichia coli 25922) | MIC [1] | MIC [2] | MIC [3] | antiangiogenic activity (angiogenesis) | MIC (gram-positive bacteria) | MIC (gram-negative bacteria)
6 | COc1cc2nc(N3C(=O)c4ccccc4C3=O)sc2cc1OC [3f, 2-[5,6-Dimethoxy-1,3-benzothiazol-2-yl]-1H-isoindole-1,3(2H)-dione] | > 250 °C | 32 mg/L (≈ 94 µM) | 32 mg/L (≈ 94 µM) | 32 mg/L (≈ 94 µM) | 32 mg/L (≈ 94 µM) | 32 mg/L (≈ 94 µM) |  | 32 to 64 mg/L (≈ 94 to 188 µM) | 64 mg/L (≈ 188 µM)
7 | O=C1c2ccccc2C(=O)N1c1nc2ccc(O)cc2s1 [3g, 2-[6-Hydroxy-1,3-benzothiazol-2-yl]-1H-isoindole-1,3(2H)-dione] | > 250 °C | 32 mg/L (≈ 108 µM) | 64 mg/L (≈ 216 µM) | 32 mg/L (≈ 108 µM) | 32 mg/L (≈ 108 µM) | 32 mg/L (≈ 108 µM) |  | 32 to 64 mg/L (≈ 108 to 216 µM) | 64 mg/L (≈ 216 µM)
8 | O=C1c2ccccc2C(=O)N1c1nc2ccc(Oc3ccccc3)cc2s1 [3h, 2-[6-Phenoxy-1,3-benzothiazol-2-yl]-1H-isoindole-1,3(2H)-dione] |  | 32 mg/L (≈ 85.9 µM) | 32 mg/L (≈ 85.9 µM) | 32 mg/L (≈ 85.9 µM) | 32 mg/L (≈ 85.9 µM) | 16 mg/L (≈ 43 µM) |  |  | 32 mg/L (≈ 85.9 µM)
